# Test results: patent US11497701B2, “Multi-functional anti-microbial polymers and compositions containing same” (priority 2015, dated 2022)
# Columns and labels:
# [1] = system: Saccharomyces cerevisiae; assay: Antifungal susceptibility disc test (rings of inhibition); format: cell-based; details: disc on Sabouraud plate, 18-24 hrs at 37° C.; polymers 100 μg per disc, Amphotericin B 20 μg; NI = No Inhibition
# Method: (§1) Each polymer was applied to sterile filter paper discs as a solution (15 mg of compound in 3 mL of solvent). Each disc received 20 μL of solution, and was allowed to dry, giving a final concentration of 100 μg of compound per disc. Adapted from Messer et al., (2007), this protocol was used to test novel compounds for antifungal properties against yeasts and fungi. Compounds were tested for antifungal activity against pure cultures of Saccharomyces cerevisiae, Candida albicans supplied by Ward's Natural Science Ltd. and Aspergillus niger and Aspergillus fumigatus supplied by […]. (Inverness Medical, Ottawa, Ontario, Canada). All cultures were maintained on Sabouraud agar. […] The cultures of A. niger and A. fumigatus were transferred, using an inoculation loop, to new Sabouraud agar and grown for 48 hrs. at 27° C., and 35° C. respectively, to cause sporulation. Triplicates of all the plates and broth cultures were made in case of error or contamination. Using a sterile swab, and aseptic techniques, the cell suspension of S. cerevisiae, and C. albicans were transferred to Sabouraud agar plates and spread evenly, ensuring that the entire surface was inoculated. They were then left to dry for 10 minutes. From the plates containing A. niger and A. fumigatus two small circles containing fungal growth of the A Niger or A Fumigatus fungi were cut from the agar plates, and using a glass/PTFE tissue homogenizer, were mixed and homogenized with 5 ml of sterile MilliQ water to create a suspension of fungal spores. Using a sterile swab, and aseptic techniques, the spore inocula of A. niger and A. fumigatus were transferred to Sabouraud agar plates and spread evenly, ensuring that the entire surface was inoculated. They were then left to dry for 10 minutes. Amphotericin B (20 μg) premade discs were used as a control. Three antibiotic discs containing different compounds were place equidistant apart on each Sabouraud plate. Each compound had three replicates per species. Plates containing S. cerevisiae, and C. albicans were incubated for 18-24 hrs at 37° C., A. niger for 48 hrs at room temperature, and A. fumigatus for 18-24 hrs at 35° C. […] If clear rings of inhibition were present, the diameter was measured twice using a caliper. Halos indicated partial inhibition of growth (Hicks et al., 2008).
# [2] = system: Aspergillus fumigatus; assay: as above; format: cell-based; details: disc on Sabouraud plate, 18-24 hrs at 35° C.; polymers 100 μg per disc, Amphotericin B 20 μg; NI = No Inhibition
# Method: as §1
# [3] = system: Aspergillus niger; assay: as above; format: cell-based; details: disc on Sabouraud plate, 48 hrs at room temperature; polymers 100 μg per disc, Amphotericin B 20 μg; NI = No Inhibition
# Method: as §1
# [4] = system: Candida albicans; assay: as above; format: cell-based; details: disc on Sabouraud plate, 18-24 hrs at 37° C.; polymers 100 μg per disc, Amphotericin B 20 μg; NI = No Inhibition
# Method: as §1
# [5] = system: Proteus mirabilis/hauseri; assay: Antibacterial susceptibility disc test (rings of inhibition); format: cell-based; details: disc on Mueller-Hinton plate, 18-24 hrs at 37° C.; polymers 100 μg per disc, control discs at given load; NI = No Inhibition
# Method: (§2) Compounds were tested for antibacterial activity, as described in Ma et al. (2011), against pure cultures of Escherichia coli, Pseudomonas aeruginosa, Bacillus cereus, Proteus mirabilis/hauseri, and Staphylococcus aureus, supplied by Ward's Natural Science Ltd. (St. Catherines, Ontario, Canada). All cultures were maintained on Tryptic Soy agar. These cultures were then transferred using an inoculation loop to 10 mL of Tryptic soy broth, and grown at 37° C. for 24 hours. Triplicates of plate and broth cultures were made in case of error or contamination. Using a sterile swab, and aseptic techniques, the bacterial broth inocula were transferred to Mueller-Hinton plates and spread evenly, ensuring that the entire surface was inoculated. They were then left to dry for 3-5 minutes. The following control discs were used: Penicillin (10 μg), Tetracycline (30 μg), Chloramphenicol (30 μg), and Ampicillin (10 μg). Four antibiotic discs containing different compounds were placed equidistant from each other on a Mueller-Hinton plate. Each compound had three replicates per species. Plates were incubated for 18-24 hrs at 37° C., and then observed for rings of inhibition. If clear rings of inhibition were present, the diameter was measured twice using a caliper. […] Each polymer was applied to sterile filter paper discs as a solution (15 mg of compound in 3 mL of solvent). Each disc received 20 μL of solution, and was allowed to dry, giving a final concentration of 100 μg of compound per disc.
# [6] = system: Pseudomonas aeruginosa; assay: as above; format: cell-based; details: disc on Mueller-Hinton plate, 18-24 hrs at 37° C.; polymers 100 μg per disc, control discs at given load; NI = No Inhibition
# Method: as §2
# [7] = system: Staphylococcus aureus; assay: as above; format: cell-based; details: disc on Mueller-Hinton plate, 18-24 hrs at 37° C.; polymers 100 μg per disc, control discs at given load; NI = No Inhibition
# Method: as §2
# [8] = system: Bacillus cereus; assay: as above; format: cell-based; details: disc on Mueller-Hinton plate, 18-24 hrs at 37° C.; polymers 100 μg per disc, control discs at given load; NI = No Inhibition
# Method: as §2
# [9] = system: Escherichia coli; assay: as above; format: cell-based; set-up: unit not given here; details: NI = No Inhibition; for diameter of ring of inhibition, E. coli (Table 5): all 10 μg; for diameter of ring of inhibition, E. coli: disc on Mueller-Hinton plate, 18-24 hrs at 37° C., polymers 100 μg per disc, control discs at given load
# Method: as §2
# [10] = Viscosity measurements (Brookfield Synchrolectric viscometer model LVF); format: physicochemical; details: 1% weight solution in distilled water, pH 7 and 25° C.
# Method: The values in centi-poise (mPa·s, m=milli) were calculated as per the specifications set out by the instrument manufacturer.
# The viscosity of the compositions described in Example 5, were also similarly measured, as well as 1% wt. solutions of pure BAC and hp-AETA.
Compound,"diameter of ring of inhibition, S. cerevisiae [1]","diameter of ring of inhibition, A. fumigatus [2]","diameter of ring of inhibition, A. niger [3]","diameter of ring of inhibition, C. albicans [4]","diameter of ring of inhibition, P. hauseri [5]","diameter of ring of inhibition, P. aeruginosa [6]","diameter of ring of inhibition, S. aureus [7]","diameter of ring of inhibition, B. cereus [8]","diameter of ring of inhibition, E. coli (Table 5) [9]","diameter of ring of inhibition, E. coli [9]",viscosity [10] [mPa·s]
C[C@@H]1[C@H](O)[C@@H](C)/C=C/C=C/C=C/C=C/C=C/C=C/C=C/[C@H](O[C@@H]2O[C@H](C)[C@@H](O)[C@H](N)[C@@H]2O)C[C@@H]2O[C@](O)(C[C@@H](O)C[C@@H](O)[C@H](O)CC[C@@H](O)C[C@@H](O)CC(=O)O[C@H]1C)C[C@H](O)[C@H]2C(=O)O [Amphotericin B],8.39,12.5,15.5,13.6,,,,,,,
CC1(C)S[C@@H]2[C@H](NC(=O)[C@H](N)c3ccccc3)C(=O)N2[C@H]1C(=O)O [Ampicillin],,,,,11,10.2,40.4,13.5,15.4,15.0,
O=C(N[C@H](CO)[C@H](O)c1ccc([N+](=O)[O-])cc1)C(Cl)Cl [Chloramphenicol],,,,,14.4,21.5,24.1,26.3,17.4,19.4,
CN(C)[C@@H]1C(O)=C(C(N)=O)C(=O)[C@@]2(O)C(O)=C3C(=O)c4c(O)cccc4[C@@](C)(O)[C@H]3C[C@@H]12 [Tetracycline],,,,,13.7,9.9,24.7,20.3,25.3,20.4,
Benzalkonium chloride [BAC],,,,,,,,,,,3.1
Penicillin,,,,,19,7.0,43.8,,19.5,19.5,
